Where “and” joins values, the source holds several entries; their conditions need not be identical. Equal entries are not always repeated. Where only a bound is given, the exact number is not on record here.

One series addresses T1, MAO-A enzyme (Homo sapiens, UniProt P21397).
T1 sequence (P21397 1-527): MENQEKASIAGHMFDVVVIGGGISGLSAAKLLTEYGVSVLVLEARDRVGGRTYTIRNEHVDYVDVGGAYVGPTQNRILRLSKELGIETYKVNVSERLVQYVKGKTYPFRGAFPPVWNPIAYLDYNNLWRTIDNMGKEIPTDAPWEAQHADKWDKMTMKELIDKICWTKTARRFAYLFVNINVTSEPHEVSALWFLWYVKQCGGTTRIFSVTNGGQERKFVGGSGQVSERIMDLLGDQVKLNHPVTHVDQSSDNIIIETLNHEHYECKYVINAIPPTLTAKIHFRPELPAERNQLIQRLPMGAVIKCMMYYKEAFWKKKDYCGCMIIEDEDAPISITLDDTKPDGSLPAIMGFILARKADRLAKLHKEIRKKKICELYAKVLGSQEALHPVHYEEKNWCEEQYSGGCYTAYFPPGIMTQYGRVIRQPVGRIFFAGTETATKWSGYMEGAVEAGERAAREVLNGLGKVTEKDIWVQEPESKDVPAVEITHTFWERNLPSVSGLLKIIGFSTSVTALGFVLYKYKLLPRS
The series is described as follows: MAO-A enzyme inhibition, fluorometric method. It is filed as biochemical. The settings on record: for IC50: 10^–3–10^–9 M concentrations; for selectivity: MAO isoform preferentially inhibited; for SI* selectivity index: SI = IC50MAO-B/IC50 MAO-A; for inhibition at 1000 µM: read-out: MAO-A % inhibition 10^–3 M; for inhibition at 100 µM: read-out: MAO-A % inhibition 10^–4 M. The text has this:
(§1) Inhibition profiles of the synthesized compounds on MAO enzymes were investigated by the fluorometric method.
(§2) In every step of the method, distilled water obtained from a Millipor, a Milli-Q Synthesis A10 purification device, was used. Care was taken in preparing all of the solutions used fresh and to consume them within 1 week after preparation. A BioTek-Precision Power robotic pipetting system was used in the processes of separating the solutions prepared in the enzyme inhibition study, applying the test compounds to 96-well plates, and adding the enzyme–substrate solutions.

For a further series, the target named is T2, MAO-B enzyme (Homo sapiens, UniProt P27338).
T2 sequence (P27338 1-520): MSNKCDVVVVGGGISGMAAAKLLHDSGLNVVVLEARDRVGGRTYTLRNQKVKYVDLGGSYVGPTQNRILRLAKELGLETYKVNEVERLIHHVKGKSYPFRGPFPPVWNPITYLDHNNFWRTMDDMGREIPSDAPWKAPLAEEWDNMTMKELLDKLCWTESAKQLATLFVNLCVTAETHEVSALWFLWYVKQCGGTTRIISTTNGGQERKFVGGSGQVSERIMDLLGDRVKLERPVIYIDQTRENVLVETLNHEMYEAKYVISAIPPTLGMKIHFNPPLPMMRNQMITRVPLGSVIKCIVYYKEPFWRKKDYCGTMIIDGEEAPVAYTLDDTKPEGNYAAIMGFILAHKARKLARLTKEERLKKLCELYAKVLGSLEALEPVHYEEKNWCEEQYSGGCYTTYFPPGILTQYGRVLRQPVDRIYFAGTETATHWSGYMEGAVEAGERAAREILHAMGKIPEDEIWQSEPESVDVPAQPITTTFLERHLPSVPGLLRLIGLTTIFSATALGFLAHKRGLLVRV
The series is described as follows: MAO-B enzyme inhibition, fluorometric method. It counts as biochemical. The settings on record: for inhibition at 1000 µM: 10^–3 M; for inhibition at 100 µM: read-out: MAO-B % inhibition 10^–4 M, 10^–4 M.
Description: as §1
as §2, with “solutions. The creation, monitoring, and spectrophotometric measurements of the enzyme protocol were performed on a BioTek-Synergy H1 microplate reader.[41],[42]” for “solutions.”

Series [1] in a line: In vitro BBB permeability assay (PAMPA). It counts as in vitro ADME. (The PAMPA barrier holds no transporters, so it reflects passive diffusion.)
A further series can be described thus: Cytotoxicity test (MTT). It counts as cell-based, mouse. The settings on record: mouse, NIH3T3 mouse embryo fibroblast cells, 24 h. The protocol: (§3) Just as important as the effectiveness of a compound is its side effect profile. For this purpose, cytotoxic effect tests of compound 2l were carried out. NIH3T3 (healthy mouse fibroblast cells) was used as the healthy cell in the experimental procedure.
(§4) 3-(4,5-Dimethylthiazol-2-yl)-2,5-diphenyl tetrazolium bromide (MTT) stock solution (5 mg mL^–1) was prepared by dissolving in phosphate buffer (PBS). The viable cell count of NIH/3T3 (mouse healthy embryo fibroblast cells) cells grown in appropriate medium and culture medium was characterized, and each cell line was seeded in 96-well plates with 3000 cells in each well, and the cells were incubated for 24 h for their adhesion. […] At the end of the incubation, the medium in each well was removed and 100 μL of DMSO was added as a solvent and the absorbance values were read in an enzyme-linked immunosorbent assay (ELISA) device (Bio Tek Cytation3 multimode microplate reader) at a wavelength of 540 nm, with eight wells in each group. […] The obtained absorbance values give the metabolic activities of the cells, and these values are associated with the number of living cells. The results are determined as % inhibition values according to the formula given, and IC50 values are calculated from these values by using the Excel program.[52]−[54]

In series [2] the test system is NIH3T3 (healthy mouse fibroblast cells). As to the kind of experiment: Cytotoxicity test (MTT). It counts as cell-based. The protocol: as §3, §4

For orientation: IC50 means the concentration at which inhibition is half-maximal. In general, inhibition refers to the drop in the measured response relative to a control, in per cent. In the case of `N#Cc1ccc(-c2csc(NN=Cc3cc4ccccc4o3)n2)cc1` [2d, 4-(2-(2-(Benzofuran-2-ylmethylene)hydrazinyl)thiazol-4-yl)benzonitrile], at MAO-A enzyme, half-maximal inhibition (IC50) was put at 310 ± 10 nM, the selectivity entry is “MAO-A”, the “SI* selectivity index” value was >326.79 and the inhibition at 1000 µM was 80.8 ± 1.69%. The inhibition at 100 µM on MAO-A enzyme was 71 ± 1.18%. On MAO-B enzyme, the IC50 was > 100000 nM, the inhibition at 1000 µM amounted to 69 ± 1.05% and the inhibition at 100 µM is 40.7 ± 0.98%.
With `Clc1ccc(-c2csc(NN=Cc3cc4ccccc4o3)n2)cc1` [2g, 2-(2-(Benzofuran-2-ylmethylene)hydrazinyl)-4-(4-chlorophenyl)thiazole], at MAO-A enzyme, it took 90 ± 10 nM to reach half-maximal inhibition (IC50), the selectivity result was “MAO-A”, the “SI* selectivity index” value is reported as >1075.27 and the inhibition at 1000 µM was found to be 79.5 ± 1.06%. Further, on MAO-A enzyme, the inhibition at 100 µM turned out to be 68.7 ± 0.94%. Also, at MAO-B enzyme, the IC50 is > 100000 nM, the inhibition at 1000 µM was found to be 68.4 ± 0.97% and the inhibition at 100 µM worked out at 45.2 ± 0.86%.
Consider `C(=NNc1nc(-c2ccccc2)cs1)c1cc2ccccc2o1` [2a, 2-(2-(Benzofuran-2-ylmethylene)hydrazinyl)-4-phenylthiazole], for which, on MAO-A enzyme, the IC50 came to 80 ± 10 nM, the selectivity entry is recorded as “MAO-A”, the “SI* selectivity index” value is reported as >9.91 and the inhibition at 1000 µM came out at 90.4 ± 1.66%. Also, the inhibition at 100 µM on MAO-A enzyme amounted to 83.7 ± 1.09%. Besides, at MAO-B enzyme, the IC50 came out at 800 ± 30 nM, the inhibition at 1000 µM was 85.2 ± 1.01% and the inhibition at 100 µM is > 50%.
With `Clc1ccc(-c2csc(NN=Cc3cc4ccccc4o3)n2)c(Cl)c1` [2l, 2-(2-(Benzofuran-2-ylmethylene)hydrazinyl)-4-(2,4-dichlorophenyl)thiazole], at MAO-A enzyme, the IC50 was 73 nM and 70 nM; the selectivity result is given as “MAO-A”; the “SI* selectivity index” value is >10.30; the inhibition at 1000 µM turned out to be 94 ± 1.65%. For the same compound, the inhibition at 100 µM on MAO-A enzyme amounted to 91.4 ± 1.36%. For the same compound, the “BBB permeability (in words)” value in series [1] is recorded as “high BBB permeability”. Further, at MAO-B enzyme, the IC50 turned out to be 750 ± 30 nM and the inhibition at 1000 µM was found to be 86.6 ± 1.29%. In the series “Cytotoxicity test (MTT)”, the IC50 at 24 h was > 100000 nM. In series [2], the cytotoxic effect result was “nontoxic”.
Regarding `Cc1ccc(-c2csc(NN=Cc3cc4ccccc4o3)n2)cc1` [2b, 2-(2-(Benzofuran-2-ylmethylene)hydrazinyl)-4-(p-tolyl)thiazole], at MAO-A enzyme, the IC50 is 210 ± 10 nM, the selectivity entry was “MAO-A”, the “SI* selectivity index” value is >458.72 and the inhibition at 1000 µM was found to be 87 ± 1.92%. Further, the inhibition at 100 µM on MAO-A enzyme amounted to 78.2 ± 1.44%. Moreover, at MAO-B enzyme, the IC50 was > 100000 nM, the inhibition at 1000 µM turned out to be 64.5 ± 1.12% and the inhibition at 100 µM stood at 47.1 ± 0.85%.

Source of the values: paper PMC10938434, “Design, Synthesis, and Biological Effect Studies of Novel Benzofuran–Thiazolylhydrazone Derivatives as Monoamine Oxidase Inhibitors” (ACS Omega, 2024).
